Data from patent EP0908457B1, “3-(1,2-benzisothiazol- and isoxazol-5-Y1)-2,4(1H,3H)-pyrimidinedione or thione and 3-(1,2-benzisothiazol- and isoxazol-5-y1)-4(3H)-pyrimidinone or thione herbicidal agents” (BASF AKTIENGESELLSCHAFT, priority 1997, dated 1999).

What was measured:
Format in all cases: in vivo
Sagittaria pygmaea, L. = assay: Preemergence weed control under flooded paddy conditions, SAGPY (Arrowhead (Pygmaea)); conditions: flooded paddy; for SAGPY herbicidal rating / herbicidal effect rating, SAGPY: preemergence, rated three to four weeks after treatment; for SAGPY: preemergence weeds, herbicidal effect rating 0-9, three to four weeks after treatment
[1] = system: Echinochloa oryzoides (Ard.) Fritsch.; assay: Preemergence weed control under flooded paddy conditions, ECHORC (Watergrass (Calif.)); conditions: flooded paddy; for ECHORC herbicidal rating / herbicidal effect rating, ECHORC: preemergence, rated three to four weeks after treatment; for ECHORC: preemergence weeds, herbicidal effect rating 0-9, three to four weeks after treatment
Cyperus iria = assay: Preemergence weed control under flooded paddy conditions, CYPIR (Rice Flatsedge); conditions: flooded paddy; for CYPIR herbicidal rating / herbicidal effect rating, CYPIR: preemergence, rated three to four weeks after treatment; for CYPIR: preemergence weeds, herbicidal effect rating 0-9, three to four weeks after treatment
[2] = system: Cyperus serotinus, Rottb.; assay: Preemergence weed control under flooded paddy conditions, CYPSE (Flatsedge); conditions: for CYPSE herbicidal rating / herbicidal effect rating, CYPSE: preemergence, rated three to four weeks after treatment
[3] = system: Monochoria vaginalis, Presl.; assay: Preemergence weed control under flooded paddy conditions, MOOVA (Monochoria); conditions: flooded paddy; for MOOVA herbicidal rating / herbicidal effect rating, MOOVA: preemergence, rated three to four weeks after treatment; for MOOVA: preemergence weeds, herbicidal effect rating 0-9, three to four weeks after treatment

COc1ccc(CC(=O)OCc2nsc3ccc(-n4c(=O)cc(C(F)(F)F)n(C)c4=O)cc23)cc1OC [Example 502, 2,4(1H,3H)-Pyrimidinedione, 3-[3-(hydroxymethyl)-1,2-benzisothiazol-5-yl]-1-methyl-6-(trifluoromethyl)-, (3,4-dimethoxyphenyl)acetate (ester)]
SAGPY herbicidal rating (Sagittaria pygmaea, L.; 0.0320 kg/ha): 0.0
SAGPY herbicidal rating (Sagittaria pygmaea, L.; 0.0620 kg/ha): 2.0
SAGPY herbicidal rating (Sagittaria pygmaea, L.; 0.1250 kg/ha): 5.0
SAGPY herbicidal rating (Sagittaria pygmaea, L.; 0.2500 kg/ha): 9.0
ECHORC herbicidal rating ([1]; 0.0320 kg/ha): 3.0
ECHORC herbicidal rating ([1]; 0.0620 kg/ha): 3.0
ECHORC herbicidal rating ([1]; 0.1250 kg/ha): 5.0
ECHORC herbicidal rating ([1]; 0.2500 kg/ha): 7.0
CYPIR herbicidal rating (Cyperus iria; 0.0320 kg/ha): 4.0
CYPIR herbicidal rating (Cyperus iria; 0.0620 kg/ha): 6.0
CYPIR herbicidal rating (Cyperus iria; 0.1250 kg/ha): 9.0
CYPIR herbicidal rating (Cyperus iria; 0.2500 kg/ha): 9.0
CYPSE herbicidal rating ([2]; 0.0320 kg/ha): 0.0
CYPSE herbicidal rating ([2]; 0.0620 kg/ha): 2.0
CYPSE herbicidal rating ([2]; 0.2500 kg/ha): 5.0
MOOVA herbicidal rating ([3]; 0.0320 kg/ha): 6.0
MOOVA herbicidal rating ([3]; 0.0620 kg/ha): 6.0
MOOVA herbicidal rating ([3]; 0.1250 kg/ha): 7.0
MOOVA herbicidal rating ([3]; 0.2500 kg/ha): 9.0

Cn1c(C(F)(F)F)cc(=O)n(-c2ccc3snc(COC(=O)CCl)c3c2)c1=O [Example 368, 2,4(1H,3H)-Pyrimidinedione, 3-[3-(hydroxymethyl)-1,2-benzisothiazol-5-yl]-1-methyl-6-(trifluoromethyl)-, chloroacetate (ester)]
herbicidal effect rating, SAGPY (Sagittaria pygmaea, L.; Rate 0.0320 kg/ha): 5.0
herbicidal effect rating, SAGPY (Sagittaria pygmaea, L.; Rate 0.0620 kg/ha): 6.0
herbicidal effect rating, SAGPY (Sagittaria pygmaea, L.; Rate 0.1250 kg/ha): 9.0
herbicidal effect rating, SAGPY (Sagittaria pygmaea, L.; Rate 0.2500 kg/ha): 9.0
herbicidal effect rating, ECHORC ([1]; Rate 0.0320 kg/ha): 3.0
herbicidal effect rating, ECHORC ([1]; Rate 0.0620 kg/ha): 7.0
herbicidal effect rating, ECHORC ([1]; Rate 0.1250 kg/ha): 7.0
herbicidal effect rating, ECHORC ([1]; Rate 0.2500 kg/ha): 8.0
herbicidal effect rating, CYPIR (Cyperus iria; Rate 0.0320 kg/ha): 7.0
herbicidal effect rating, CYPIR (Cyperus iria; Rate 0.0620 kg/ha): 9.0
herbicidal effect rating, CYPIR (Cyperus iria; Rate 0.1250 kg/ha): 9.0
herbicidal effect rating, CYPIR (Cyperus iria; Rate 0.2500 kg/ha): 9.0
herbicidal effect rating, CYPSE ([2]; Rate 0.0320 kg/ha): 0.0
herbicidal effect rating, CYPSE ([2]; Rate 0.0620 kg/ha): 4.0
herbicidal effect rating, CYPSE ([2]; Rate 0.1250 kg/ha): 7.0
herbicidal effect rating, CYPSE ([2]; Rate 0.2500 kg/ha): 8.0
herbicidal effect rating, MOOVA ([3]; Rate 0.0320 kg/ha): 9.0
herbicidal effect rating, MOOVA ([3]; Rate 0.0620 kg/ha): 9.0
herbicidal effect rating, MOOVA ([3]; Rate 0.1250 kg/ha): 9.0
herbicidal effect rating, MOOVA ([3]; Rate 0.2500 kg/ha): 9.0

CN(O)C(=O)c1nsc2ccc(-n3c(=O)cc(C(F)(F)F)n(C)c3=O)cc12 [Example 398, 1,2-Benzisothiazole-3-carbohydroxamic acid, 5-[3,6-dihydro-3-methyl-2,6-dioxo-4-(trifluoromethyl)-1(2H)-pyrimidinyl]-N-methyl-]
herbicidal effect rating, SAGPY (Sagittaria pygmaea, L.; Rate 0.0320 kg/ha): 0.0
herbicidal effect rating, SAGPY (Sagittaria pygmaea, L.; Rate 0.0620 kg/ha): 0.0
herbicidal effect rating, SAGPY (Sagittaria pygmaea, L.; Rate 0.1250 kg/ha): 0.0
herbicidal effect rating, SAGPY (Sagittaria pygmaea, L.; Rate 0.2500 kg/ha): 3.0
herbicidal effect rating, ECHORC ([1]; Rate 0.0320 kg/ha): 0.0
herbicidal effect rating, ECHORC ([1]; Rate 0.0620 kg/ha): 2.0
herbicidal effect rating, ECHORC ([1]; Rate 0.1250 kg/ha): 3.0
herbicidal effect rating, ECHORC ([1]; Rate 0.2500 kg/ha): 8.0
herbicidal effect rating, CYPIR (Cyperus iria; Rate 0.0320 kg/ha): 0.0
herbicidal effect rating, CYPIR (Cyperus iria; Rate 0.0620 kg/ha): 3.0
herbicidal effect rating, CYPIR (Cyperus iria; Rate 0.1250 kg/ha): 6.0
herbicidal effect rating, CYPIR (Cyperus iria; Rate 0.2500 kg/ha): 8.0
herbicidal effect rating, CYPSE ([2]; Rate 0.0320 kg/ha): 0.0
herbicidal effect rating, CYPSE ([2]; Rate 0.0620 kg/ha): 0.0
herbicidal effect rating, CYPSE ([2]; Rate 0.1250 kg/ha): 3.0
herbicidal effect rating, CYPSE ([2]; Rate 0.2500 kg/ha): 3.0
herbicidal effect rating, MOOVA ([3]; Rate 0.0320 kg/ha): 6.0
herbicidal effect rating, MOOVA ([3]; Rate 0.0620 kg/ha): 9.0
herbicidal effect rating, MOOVA ([3]; Rate 0.1250 kg/ha): 9.0
herbicidal effect rating, MOOVA ([3]; Rate 0.2500 kg/ha): 9.0

COc1ccc(CC(=O)OCc2nsc3ccc(-n4c(=O)cc(C(F)(F)F)n(C)c4=O)cc23)cc1 [Example 450, 2,4(1H,3H)-Pyrimidinedione, 3-[3-(hydroxymethyl)-1,2-benzisothiazol-5-yl]-1-methyl-6-(trifluoromethyl)-, (p-methoxyphenyl)acetate (ester)]
SAGPY (Sagittaria pygmaea, L.; 0.0320 kg/ha): 5.0
SAGPY (Sagittaria pygmaea, L.; 0.0620 kg/ha): 5.0
SAGPY (Sagittaria pygmaea, L.; 0.1250 kg/ha): 6.0
SAGPY (Sagittaria pygmaea, L.; 0.2500 kg/ha): 9.0
ECHORC ([1]; 0.0320 kg/ha): 0.0
ECHORC ([1]; 0.0620 kg/ha): 2.0
ECHORC ([1]; 0.1250 kg/ha): 6.0
ECHORC ([1]; 0.2500 kg/ha): 9.0
CYPIR (Cyperus iria; 0.0320 kg/ha): 6.0
CYPIR (Cyperus iria; 0.0620 kg/ha): 7.0
CYPIR (Cyperus iria; 0.1250 kg/ha): 9.0
CYPIR (Cyperus iria; 0.2500 kg/ha): 9.0
CYPSE ([2]; 0.0320 kg/ha, preemergence weeds, herbicidal effect rating 0-9, three to four weeks after treatment): 0.0
MOOVA ([3]; 0.0320 kg/ha): 7.0
MOOVA ([3]; 0.0620 kg/ha): 7.0
MOOVA ([3]; 0.1250 kg/ha): 9.0
MOOVA ([3]; 0.2500 kg/ha): 9.0

Cn1c(C(F)(F)F)cc(=O)n(-c2ccc3snc(COC(=O)c4cccs4)c3c2)c1=O [Example 477, 2,4(1H,3H)-Pyrimidinedione, 3-[3-(hydroxymethyl)-1,2-benzisothiazol-5-yl]-1-methyl-6-(trifluoromethyl)-, 2-thiophenecarboxylate (ester)]
SAGPY herbicidal rating (Sagittaria pygmaea, L.; 0.0320 kg/ha): 0.0
SAGPY herbicidal rating (Sagittaria pygmaea, L.; 0.0620 kg/ha): 0.0
SAGPY herbicidal rating (Sagittaria pygmaea, L.; 0.1250 kg/ha): 0.0
SAGPY herbicidal rating (Sagittaria pygmaea, L.; 0.2500 kg/ha): 2.0
ECHORC herbicidal rating ([1]; 0.0320 kg/ha): 0.0
ECHORC herbicidal rating ([1]; 0.0620 kg/ha): 0.0
ECHORC herbicidal rating ([1]; 0.1250 kg/ha): 2.0
ECHORC herbicidal rating ([1]; 0.2500 kg/ha): 3.0
CYPIR herbicidal rating (Cyperus iria; 0.0320 kg/ha): 4.0
CYPIR herbicidal rating (Cyperus iria; 0.0620 kg/ha): 4.0
CYPIR herbicidal rating (Cyperus iria; 0.1250 kg/ha): 5.0
CYPIR herbicidal rating (Cyperus iria; 0.2500 kg/ha): 6.0
CYPSE herbicidal rating ([2]; 0.0320 kg/ha): 3.0
CYPSE herbicidal rating ([2]; 0.0620 kg/ha): 3.0
CYPSE herbicidal rating ([2]; 0.2500 kg/ha): 3.0
MOOVA herbicidal rating ([3]; 0.0320 kg/ha): 3.0
MOOVA herbicidal rating ([3]; 0.0620 kg/ha): 3.0
MOOVA herbicidal rating ([3]; 0.1250 kg/ha): 6.0
MOOVA herbicidal rating ([3]; 0.2500 kg/ha): 7.0

Cn1c(C(F)(F)F)cc(=O)n(-c2ccc3snc(C[S+]([O-])c4ccccc4)c3c2)c1=O (centres unmarked) [Example 394, 2,4(1H,3H)-Pyrimidinedione, 1-methyl-3-{3-[(phenylsulfinyl)methyl]-1,2-benzisothiazol-5-yl}-6-(trifluoromethyl)-]
herbicidal effect rating, SAGPY (Sagittaria pygmaea, L.; Rate 0.0620 kg/ha): 0.0
herbicidal effect rating, SAGPY (Sagittaria pygmaea, L.; Rate 0.1250 kg/ha): 0.0
herbicidal effect rating, SAGPY (Sagittaria pygmaea, L.; Rate 0.2500 kg/ha): 0.0
herbicidal effect rating, ECHORC ([1]; Rate 0.0320 kg/ha): 0.0
herbicidal effect rating, ECHORC ([1]; Rate 0.0620 kg/ha): 0.0
herbicidal effect rating, ECHORC ([1]; Rate 0.1250 kg/ha): 4.0
herbicidal effect rating, ECHORC ([1]; Rate 0.2500 kg/ha): 6.0
herbicidal effect rating, CYPIR (Cyperus iria; Rate 0.0320 kg/ha): 0.0
herbicidal effect rating, CYPIR (Cyperus iria; Rate 0.0620 kg/ha): 3.0
herbicidal effect rating, CYPIR (Cyperus iria; Rate 0.1250 kg/ha): 5.0
herbicidal effect rating, CYPIR (Cyperus iria; Rate 0.2500 kg/ha): 7.0
herbicidal effect rating, CYPSE ([2]; Rate 0.0320 kg/ha): 0.0
herbicidal effect rating, CYPSE ([2]; Rate 0.0620 kg/ha): 0.0
herbicidal effect rating, CYPSE ([2]; Rate 0.1250 kg/ha): 0.0
herbicidal effect rating, CYPSE ([2]; Rate 0.2500 kg/ha): 2.0
herbicidal effect rating, MOOVA ([3]; Rate 0.0320 kg/ha): 8.0
herbicidal effect rating, MOOVA ([3]; Rate 0.0620 kg/ha): 8.0
herbicidal effect rating, MOOVA ([3]; Rate 0.1250 kg/ha): 9.0
herbicidal effect rating, MOOVA ([3]; Rate 0.2500 kg/ha): 9.0

2,4(1H,3H)-Pyrimidinedione, 3-[3-(hydroxymethyl)-1,2-benzisothiazol-5-yl]-1-methyl-6-(trifluoromethyl)-, chlorophenylacetate (ester) [Example 504]
SAGPY herbicidal rating (Sagittaria pygmaea, L.; 0.0320 kg/ha): 0.0
SAGPY herbicidal rating (Sagittaria pygmaea, L.; 0.2500 kg/ha): 7.0
ECHORC herbicidal rating ([1]; 0.0320 kg/ha): 2.0
ECHORC herbicidal rating ([1]; 0.0620 kg/ha): 3.0
ECHORC herbicidal rating ([1]; 0.1250 kg/ha): 6.0
ECHORC herbicidal rating ([1]; 0.2500 kg/ha): 7.0
CYPIR herbicidal rating (Cyperus iria; 0.0320 kg/ha): 4.0
CYPIR herbicidal rating (Cyperus iria; 0.0620 kg/ha): 7.0
CYPIR herbicidal rating (Cyperus iria; 0.1250 kg/ha): 9.0
CYPIR herbicidal rating (Cyperus iria; 0.2500 kg/ha): 9.0
CYPSE herbicidal rating ([2]; 0.0320 kg/ha): 0.0
CYPSE herbicidal rating ([2]; 0.0620 kg/ha): 0.0
CYPSE herbicidal rating ([2]; 0.1250 kg/ha): 0.0
MOOVA herbicidal rating ([3]; 0.0320 kg/ha): 6.0
MOOVA herbicidal rating ([3]; 0.0620 kg/ha): 8.0
MOOVA herbicidal rating ([3]; 0.1250 kg/ha): 9.0
MOOVA herbicidal rating ([3]; 0.2500 kg/ha): 9.0
